Assays:
[1] = biological target: CYP2D6 (Homo sapiens, UniProt P10635); experiment: CYP inhibition screening, CYP2D6; format: in vitro ADME
[2] = test system: CYP3A; experiment: CYP inhibition screening, CYP3A-Testosterone; format: in vitro ADME
[3] = biological target: Cathepsin-S (Homo sapiens, UniProt P25774); experiment: Specificity assay against Cathepsin-S; format: biochemical
Procedure: (§1) Purified recombinant enzyme was incubated with various concentrations of inhibitor in appropriate assay buffers in the presence of increasing concentrations of inhibitor. The formation of fluorescent product was monitored in duplicate reactions and the data was fit to appropriate equations to calculate the IC50 values.
(§2) To identify small-molecule inhibitors of AEP, a high-throughput screen was designed in conjunction with the Emory Chemical Biology Discovery Center. The screen incorporated mouse kidney lysates to assay a 54,384 compound library. […] Additional structural analysis and grouping allowed the compounds to be sorted into 8 distinct backbone families. […] The specificity of the compounds was also determined using four major cysteine proteases (FIG. 2).

[4] = test system: amyloid precursor protein (APP) cleavage; experiment: APP cleavage in OGD-treated primary cortical neurons; format: cell-based; settings: 0.1 μM compound
Procedure: A. AEP activity, measured in primary neuronal cultures with 5 μM Cbz-Ala-Ala-Asn-AMC (x-axis denotes neurons were treated with 0.1 μM or 1.0 μM specified compound). B. Caspase activity, measured in primary neuronal cultures with 5 μM Ac-Asp-Glu-Val-Asp-AMC. C. Cathepsin activity, measured in primary neuronal cultures with 5 μM D-Val-Leu-Lys-AMC. D. Inhibition of APP cleavage. Lysates of primary cortical neurons pre-incubated with compounds for 30 min, underwent OGD for 4 hrs, were reperfused for 18 hrs (normoxia neurons remained at normoxic conditions). E. APP can be cleaved in a dose-dependent manner. Lysates of primary cortical neurons pre-incubated with compounds for 30 min, underwent OGD for 4 hrs, were reperfused for 18 hrs (normoxia neurons remained at normoxic conditions).
Depriving cells of oxygen and glucose is a cellular model that is employed to trigger acidosis in cultured cells. The efficacy of the compounds in a cellular model of oxygen-glucose deprivation (OGD) was determined in an effort to mimic the effects of stroke in primary cultured neurons. As a result of depriving neurons of oxygen and glucose-containing medium, AEP activity was doubled (FIG. 7A, ‘DMSO-Norm’ compared to ‘DMSO-OGD’), while Caspase-3 and Cathepsin activities remained relatively unchanged. […] Cleavage of APP is observed in response to only DMSO treatment (FIG. 7D, lane 2), and it appears that upon the treatment of 1 μM of compounds 10, 11, and 12, and just 0.1 μM of compound s31, 38 and 64, the cleavage was blocked, presumably due to AEP inhibition.

[5] = biological target: CYP3A4 (Homo sapiens, UniProt P08684); experiment: CYP inhibition screening, CYP3A4-Midazolam; format: in vitro ADME
[6] = biological target: T1, Caspase-3 (Homo sapiens, UniProt P42574); experiment: Specificity assay against Caspase-3; format: biochemical
T1 sequence (P42574 29-175 limits assumed): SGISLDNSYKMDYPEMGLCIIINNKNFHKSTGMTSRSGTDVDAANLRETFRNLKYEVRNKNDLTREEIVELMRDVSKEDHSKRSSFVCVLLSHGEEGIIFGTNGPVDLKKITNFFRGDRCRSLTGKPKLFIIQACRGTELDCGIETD
T1 sequence (P42574 176-277 limits assumed): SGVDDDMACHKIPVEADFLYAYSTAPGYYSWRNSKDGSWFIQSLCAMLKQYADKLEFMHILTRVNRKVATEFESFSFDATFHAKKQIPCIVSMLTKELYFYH
Procedure: as §1, §2

[7] = biological target: Caspase-8 (Homo sapiens, UniProt Q14790); experiment: Specificity assay against Caspase-8; format: biochemical
Procedure: as §1, §2

[8] = biological target: T2, AEP (Homo sapiens, UniProt Q99538); experiment: IC50 assay with purified recombinant AEP; format: biochemical; settings: purified active AEP; read-out: IC50 toward AEP
T2 construct: tested with purified active AEP, IC50 values for the top 8 candidates were found
T2 sequence (Q99538 18-323 limits assumed): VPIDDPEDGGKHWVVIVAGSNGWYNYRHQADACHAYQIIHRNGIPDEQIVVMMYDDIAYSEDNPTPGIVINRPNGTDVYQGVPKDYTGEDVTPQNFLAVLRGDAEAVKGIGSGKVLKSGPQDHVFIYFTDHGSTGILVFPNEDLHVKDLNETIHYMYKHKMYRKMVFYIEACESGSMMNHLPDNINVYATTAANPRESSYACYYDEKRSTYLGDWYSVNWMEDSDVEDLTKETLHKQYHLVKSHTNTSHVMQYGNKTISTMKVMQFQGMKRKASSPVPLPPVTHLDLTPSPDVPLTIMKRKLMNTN
Procedure: as §1, §2
Various concentrations of the appropriate compound were incubated with AEP reaction buffer (50 mM Sodium Citrate pH 5.5, 0.1% CHAPS, 60 mM Na2HPO4, 1 mM EDTA, final pH 6.0) and peptide substrate, 10 μM Cbz-Ala-Ala-Asn-AMC (Bachem). The reaction was initiated upon addition of 50 nM AEP and fluorescent product formation was monitored over 15 min. […] Data were analyzed with GraFit version 5.0.11 software package.

[9] = biological target: CYP2C9 (Homo sapiens, UniProt P11712); experiment: CYP inhibition screening, CYP2C9; format: in vitro ADME
[10] = biological target: T3, CYP1A2 (Homo sapiens, UniProt P05177); experiment: CYP inhibition screening, CYP1A2; format: in vitro ADME
T3 sequence (P05177 1-516): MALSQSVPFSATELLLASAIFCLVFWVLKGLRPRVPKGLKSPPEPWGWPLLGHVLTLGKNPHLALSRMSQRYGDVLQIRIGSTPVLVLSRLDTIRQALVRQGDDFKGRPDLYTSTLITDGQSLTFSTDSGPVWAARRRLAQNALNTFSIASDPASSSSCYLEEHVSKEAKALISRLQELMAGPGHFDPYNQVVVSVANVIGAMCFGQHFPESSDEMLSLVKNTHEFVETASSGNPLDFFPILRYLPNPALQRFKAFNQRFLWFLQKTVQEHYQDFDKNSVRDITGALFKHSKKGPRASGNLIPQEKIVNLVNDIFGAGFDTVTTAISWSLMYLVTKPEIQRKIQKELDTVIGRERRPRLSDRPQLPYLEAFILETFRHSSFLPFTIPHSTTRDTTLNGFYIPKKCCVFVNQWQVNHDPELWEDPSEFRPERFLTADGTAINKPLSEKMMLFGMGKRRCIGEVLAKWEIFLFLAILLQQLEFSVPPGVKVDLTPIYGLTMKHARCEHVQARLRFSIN

[11] = biological target: CYP2C19 (Homo sapiens, UniProt P33261); experiment: CYP inhibition screening, CYP2C19; format: in vitro ADME
[12] = biological target: Cathepsin-L (Homo sapiens, UniProt P07711); experiment: Specificity assay against Cathepsin-L; format: biochemical
[13] = test system: Caco-2 monolayer; experiment: Caco-2 monolayer permeability screen; settings: Table 1
Procedure: To explore the in vitro ADME profiles of the compounds, additional tests were conducted.

CYP2C9, sequence (P11712 whole entry): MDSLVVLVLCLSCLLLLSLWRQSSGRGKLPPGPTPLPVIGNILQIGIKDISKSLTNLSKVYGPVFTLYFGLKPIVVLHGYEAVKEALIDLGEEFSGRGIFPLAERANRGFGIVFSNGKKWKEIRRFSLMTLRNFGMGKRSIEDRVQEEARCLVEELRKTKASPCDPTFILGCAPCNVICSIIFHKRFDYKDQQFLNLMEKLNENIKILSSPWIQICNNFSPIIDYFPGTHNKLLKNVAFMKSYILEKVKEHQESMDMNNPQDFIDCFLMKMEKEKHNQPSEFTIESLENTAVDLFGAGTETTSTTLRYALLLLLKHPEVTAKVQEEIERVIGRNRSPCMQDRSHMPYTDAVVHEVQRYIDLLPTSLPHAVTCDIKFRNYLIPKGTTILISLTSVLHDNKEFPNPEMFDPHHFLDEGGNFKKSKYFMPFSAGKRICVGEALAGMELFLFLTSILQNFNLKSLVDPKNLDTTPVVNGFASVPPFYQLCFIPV
CYP2D6, sequence (P10635 whole entry): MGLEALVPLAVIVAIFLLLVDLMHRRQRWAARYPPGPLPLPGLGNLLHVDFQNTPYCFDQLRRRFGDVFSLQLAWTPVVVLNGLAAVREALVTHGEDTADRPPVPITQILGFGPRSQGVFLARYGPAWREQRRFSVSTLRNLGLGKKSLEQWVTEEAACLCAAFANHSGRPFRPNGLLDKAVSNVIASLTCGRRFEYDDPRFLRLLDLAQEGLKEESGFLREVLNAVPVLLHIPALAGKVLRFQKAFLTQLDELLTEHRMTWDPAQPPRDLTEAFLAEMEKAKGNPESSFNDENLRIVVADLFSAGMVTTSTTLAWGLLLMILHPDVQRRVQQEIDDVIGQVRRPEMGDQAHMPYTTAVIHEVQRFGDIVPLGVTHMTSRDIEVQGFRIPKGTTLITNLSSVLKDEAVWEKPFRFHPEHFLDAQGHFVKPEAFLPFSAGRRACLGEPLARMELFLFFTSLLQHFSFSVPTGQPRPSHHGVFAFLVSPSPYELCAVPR
CYP3A4, sequence (P08684 whole entry): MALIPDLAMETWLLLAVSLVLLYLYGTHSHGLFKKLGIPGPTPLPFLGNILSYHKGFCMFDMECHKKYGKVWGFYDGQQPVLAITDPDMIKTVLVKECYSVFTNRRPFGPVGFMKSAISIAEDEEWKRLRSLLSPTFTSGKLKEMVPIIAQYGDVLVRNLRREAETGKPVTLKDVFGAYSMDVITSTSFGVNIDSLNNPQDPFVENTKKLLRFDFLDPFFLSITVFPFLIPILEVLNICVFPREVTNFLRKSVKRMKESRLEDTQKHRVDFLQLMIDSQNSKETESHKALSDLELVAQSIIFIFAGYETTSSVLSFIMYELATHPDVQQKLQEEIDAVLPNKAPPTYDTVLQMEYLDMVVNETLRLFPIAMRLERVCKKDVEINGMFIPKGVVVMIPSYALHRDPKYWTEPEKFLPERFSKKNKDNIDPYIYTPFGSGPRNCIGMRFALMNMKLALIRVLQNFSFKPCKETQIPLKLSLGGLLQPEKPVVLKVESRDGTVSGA
CYP2C19, sequence (P33261 whole entry): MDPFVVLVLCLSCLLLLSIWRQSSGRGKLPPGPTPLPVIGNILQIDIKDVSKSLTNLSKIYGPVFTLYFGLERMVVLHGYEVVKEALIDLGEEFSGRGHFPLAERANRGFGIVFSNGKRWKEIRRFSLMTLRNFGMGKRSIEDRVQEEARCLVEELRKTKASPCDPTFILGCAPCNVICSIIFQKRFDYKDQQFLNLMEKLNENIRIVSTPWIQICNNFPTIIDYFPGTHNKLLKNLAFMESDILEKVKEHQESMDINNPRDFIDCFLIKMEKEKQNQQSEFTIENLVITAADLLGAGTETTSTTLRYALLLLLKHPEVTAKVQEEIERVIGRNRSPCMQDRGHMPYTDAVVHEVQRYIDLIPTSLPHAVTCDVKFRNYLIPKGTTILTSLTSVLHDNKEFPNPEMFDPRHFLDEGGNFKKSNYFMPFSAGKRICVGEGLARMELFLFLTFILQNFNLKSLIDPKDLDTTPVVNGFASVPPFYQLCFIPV
Cathepsin-S, sequence (P25774 115-331, species assumed): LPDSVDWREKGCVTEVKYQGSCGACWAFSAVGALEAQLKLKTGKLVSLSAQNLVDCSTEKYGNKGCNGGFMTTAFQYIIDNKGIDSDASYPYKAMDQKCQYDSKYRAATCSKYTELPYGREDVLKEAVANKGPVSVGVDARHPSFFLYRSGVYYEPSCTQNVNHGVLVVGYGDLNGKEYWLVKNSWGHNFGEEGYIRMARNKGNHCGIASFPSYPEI
Cathepsin-L, sequence (P07711 114-333, species assumed): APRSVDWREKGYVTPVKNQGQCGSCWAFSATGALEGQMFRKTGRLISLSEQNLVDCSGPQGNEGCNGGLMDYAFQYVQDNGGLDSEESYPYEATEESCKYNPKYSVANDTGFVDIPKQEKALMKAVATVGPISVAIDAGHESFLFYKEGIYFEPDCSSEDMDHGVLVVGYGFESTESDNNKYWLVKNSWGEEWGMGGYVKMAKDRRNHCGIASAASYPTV
Caspase-8, sequence (Q14790 217-374 limits assumed, species assumed): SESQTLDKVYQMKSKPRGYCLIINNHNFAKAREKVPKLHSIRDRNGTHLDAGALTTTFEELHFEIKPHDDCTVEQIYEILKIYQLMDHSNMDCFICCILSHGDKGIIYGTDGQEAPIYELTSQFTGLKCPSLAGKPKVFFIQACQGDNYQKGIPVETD
Caspase-8, sequence (Q14790 385-479 limits assumed, species assumed): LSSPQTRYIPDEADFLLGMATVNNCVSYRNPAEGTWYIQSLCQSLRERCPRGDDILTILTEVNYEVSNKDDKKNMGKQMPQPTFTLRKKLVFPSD

For CCN(CC)c1ccc(CN2CCc3nc(C)[nH]c(=O)c3C2)c(OC)c1 [Compound 64], the CYP2D6 inhibition ([1]; 3 μM) was 34.6%, the CYP2D6 inhibition ([1]; 10 μM) was 58.3% and the CYP3A-Testosterone inhibition ([2]; 3 μM) was 1.5%. The CYP3A-Testosterone inhibition ([2]; 10 μM) was −0.1%, the “selectivity for AEP over Cathepsin-S” value [3] was “over 40 fold” and the “APP cleavage after OGD” value [4] was “blocked”. For the same molecule, the CYP3A4-Midazolam inhibition ([5]; 3 μM) was 0.6%, the CYP3A4-Midazolam inhibition ([5]; 10 μM) was 10.1% and the “selectivity for AEP over Caspase-3” value [6] was “about 6 fold”. For the same molecule, the “selectivity for AEP over Caspase-8” value [7] was “over 40 fold”, the IC50 [8] was 2370 nM and the CYP2C9 inhibition ([9]; 3 μM) was 4.6%. It also gave a CYP2C9 inhibition ([9]; 10 μM) of 7.9%, a CYP1A2 inhibition ([10]; 3 μM) of 73.7% and a CYP1A2 inhibition ([10]; 10 μM) of 22.2%. For the same molecule, the CYP2C19 inhibition ([11]; 3 μM) was 31.6%, the CYP2C19 inhibition ([11]; 10 μM) was 20.4% and the “selectivity for AEP over Cathepsin-L” value [12] was “over 40 fold”. The “A −>B Papp” value [13] was “<LLOQ” and the “B −> A Papp” value [13] was “<LLOQ”.

Reference: patent US10759803B2, “Asparagine endopeptidase (AEP) inhibitors for managing cancer and compositions related thereto” (priority 2014, dated 2020)
